Reference: article PMC5916850 (Bioorganic & medicinal chemistry letters, 2018)

Target: GRK5 (Homo sapiens, UniProt P34947)
Assay: GRK phosphorylation assay, GRK5
Details: average of three separate experiments run in duplicate; error = standard error of the mean

GRK5, sequence (P34947 whole entry, species assumed): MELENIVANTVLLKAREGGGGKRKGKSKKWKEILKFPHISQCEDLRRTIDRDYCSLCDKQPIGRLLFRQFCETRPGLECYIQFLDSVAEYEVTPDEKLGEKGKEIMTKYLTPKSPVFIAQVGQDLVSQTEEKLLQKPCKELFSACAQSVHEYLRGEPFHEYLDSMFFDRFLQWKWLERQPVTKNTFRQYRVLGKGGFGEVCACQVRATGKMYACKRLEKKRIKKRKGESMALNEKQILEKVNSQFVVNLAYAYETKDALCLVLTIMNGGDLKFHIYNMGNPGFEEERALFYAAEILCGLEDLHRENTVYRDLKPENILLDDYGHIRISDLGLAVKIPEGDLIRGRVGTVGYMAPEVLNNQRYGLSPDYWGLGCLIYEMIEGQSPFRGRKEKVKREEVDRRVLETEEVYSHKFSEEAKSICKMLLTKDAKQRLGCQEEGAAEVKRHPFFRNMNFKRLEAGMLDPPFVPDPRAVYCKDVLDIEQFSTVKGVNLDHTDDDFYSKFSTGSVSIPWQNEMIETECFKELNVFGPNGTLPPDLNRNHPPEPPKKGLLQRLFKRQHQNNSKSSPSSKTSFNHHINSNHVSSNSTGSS

GRK5 (IC50 μM)	SMILES
no sub-μM IC50 values	CC1=C(C(=O)Nc2ccc3[nH]ncc3c2)C(c2ccc(F)c(C(=O)NC(C)CCCC(C)C)c2)NC(=O)N1 (stereo not shown) [Compound 47]
no sub-μM IC50 values	CC1=C(C(=O)Nc2ccc3[nH]ncc3c2)C(c2ccc(F)c(C(=O)NC3CC4CCC3(C)C4(C)C)c2)NC(=O)N1 (stereo not shown) [Compound 32]
no sub-μM IC50 values	CC1=C(C(=O)Nc2ccc3[nH]ncc3c2)C(c2ccc(F)c(CCC(=O)N(CC(C)C)C(C)C)c2)NC(=O)N1 (stereo not shown) [Compound 41]
no sub-μM IC50 values	CCC(C)CN(CCO)C(=O)Cc1cc(C2NC(=O)NC(C)=C2C(=O)Nc2ccc3[nH]ncc3c2)ccc1F (stereo not shown) [Compound 44]
no sub-μM IC50 values	COCCCC1CCCCN1C(=O)c1cc(C2NC(=O)NC(C)=C2C(=O)Nc2ccc3[nH]ncc3c2)ccc1F (stereo not shown) [Compound 48]
no sub-μM IC50 values	C#CCN(CC(C)C)C(=O)Cc1cc(C2NC(=O)NC(C)=C2C(=O)Nc2ccc3[nH]ncc3c2)ccc1F (stereo not shown) [Compound 38]
no sub-μM IC50 values	CC1=C(C(=O)Nc2ccc3[nH]ncc3c2)C(c2ccc(F)c(CC(=O)N3CCCC(C(C)(C)C)CC3)c2)NC(=O)N1 (stereo not shown) [Compound 31]
